Patent US20080131475A1, “Methods of Use of Dual Ppar Agonist Compounds and Drug Delivery Devices Containing Such Compounds” (priority 2005, published 2008)

What was measured:
[1] = system: restenotic lesion and arterial stenosis in stented coronary arteries; experiment: swine model of restenosis with coronary stents eluting Compound A; format: in vivo; conditions: juvenile swine, poly-n-butyl methacrylate coated stent containing 200 mg Compound A per stent, coronary artery, 7 or 28 days
Description: (§1) The treatment and/or prevention of restenosis in vivo in diabetics and non-diabetics can be evaluated as follows: • 1. The beneficial effects of a compound of the present invention on restenosis are ascertained in a swine model of restenosis. Stainless steel balloon-expandable tubular stents, 18 mm long, are coated with a thin layer of a polymer, i.e., poly-n-butyl methacrylate, containing […] of (R)-1-{4-[5-methyl-2-(4-trifluoromethyl-phenyl)-oxazol-4-ylmethoxy]-benzenesulfonyl}-2,3-dihydro-1H-indole-2-carboxylic acid (Compound A) per stent. Juvenile swine (25-35 kg) undergo placement of bare metal stents which elute Compound A in the left anterior descending, circumflex or right coronary artery. The guiding catheter is used as a reference to obtain a 1.2:1 to 1.4:1 stent-to-artery ratio compared with the baselinevessel diameter. […] At 7 days or 28 days, the animals are euthanized after completion of coronary angiography for quantitative analysis. • Immediately following euthanasia, the hearts are harvested, and the coronary arteries are perfusion-fixed with 10% buffered formalin at 60-80 mm Hg for 30 minutes via the aortic stump. […] Vessel wall expression of proliferating cell nuclear antigen (PCNA) (Santa Cruz Biotechnology), pRb (Pharmingen), monocyte chemotactic protein (MCP)-1 (R&D Systems) or interleukin (IL)-6 (R&D Systems) were evaluated by Western blot analysis. […]

[2] = system: restenotic lesion formation and arterial stenosis in diabetic swine; experiment: diabetic swine model of restenosis; format: in vivo; conditions: streptozotocin-diabetic juvenile swine, procedure as in non-diabetic stent model
Description: as §1

[3] = drug release from coated stent pieces in PBS pH 7.4 or PEG/water; format: physicochemical; conditions: 2 cm coated stent pieces, PBS pH 7.4 or PEG 400/water 40/60 v/v, 37° C., solutions changed daily
Description: Four 2 cm pieces of coated stents as described above are placed into 100 mL of phosphate buffer solution (PBS) having a pH of 7.4. Another 4 pieces from each series are placed into 100 mL polyethylene glycol (PEG)/water solution (40/60 v/v, MW of PEG=400). The stent pieces are incubated at 37° C. in a shaker. The buffer and PEG solutions are changed daily and different assays are performed on the solution to determine the released (R)-1-{4-[5-methyl-2-(4-trifluoromethyl-phenyl)-oxazol-4-ylmethoxy]-benzenesulfonyl}-2,3-dihydro-1H-indole-2-carboxylic acid concentrations. Such assays can show a stable release of (R)-1-{4-[5-methyl-2-(4-trifluoromethyl-phenyl)-oxazol-4-ylmethoxy]-benzenesulfonyl}-2,3-dihydro-1H-indole-2-carboxylic acid from coated stents for more than 45 days. By the term “stable-release of (R)-1-{4-[5-methyl-2-(4-trifluoromethyl-phenyl)-oxazol-4-ylmethoxy]-benzenesulfonyl}-2,3-dihydro-1H-indole-2-carboxylic acid” is meant less than 10% of variation of the drug release. Controlled-release techniques used by a person skilled in the art allow an unexpected easy adaptation of the required drug release rate. […]

duration of stable release from coated stents (less than 10% of variation of the drug release) [3]: more than 45 days
Compound: Cc1oc(-c2ccc(C(F)(F)F)cc2)nc1COc1ccc(S(=O)(=O)N2c3ccccc3C[C@@H]2C(=O)O)cc1 [Compound A, (R)-1-{4-[5-methyl-2-(4-trifluoromethyl-phenyl)-oxazol-4-ylmethoxy]-benzenesulfonyl}-2,3-dihydro-1H-indole-2-carboxylic acid]
extent of restenotic lesion and arterial stenosis [1]: marked reduction | extent of restenotic lesion formation and arterial stenosis [2]: reduction
